Experimental data as given in patent US20120058133A1, “INHIBITION OF TRNA SYNTHETASES AND THERAPEUTIC APPLICATIONS THEREOF” (President and Fellows of Harvard College, priority 2009, published 2012).

Assays:
[1] = tested on: TGFβ signaling; conditions: literature reports; cited from earlier work
[2] = target: T1, prolyl tRNA synthetase (Oryctolagus cuniculus, UniProt G1T2I4); assay: tRNA charging in RRL (14C Pro or 35S Met incorporation into tRNA); format: biochemical, rabbit
T1 construct: from tissue; host or cells: rabbit reticulocyte lysate (RRL)
T1 sequence (G1T2I4 1-1447): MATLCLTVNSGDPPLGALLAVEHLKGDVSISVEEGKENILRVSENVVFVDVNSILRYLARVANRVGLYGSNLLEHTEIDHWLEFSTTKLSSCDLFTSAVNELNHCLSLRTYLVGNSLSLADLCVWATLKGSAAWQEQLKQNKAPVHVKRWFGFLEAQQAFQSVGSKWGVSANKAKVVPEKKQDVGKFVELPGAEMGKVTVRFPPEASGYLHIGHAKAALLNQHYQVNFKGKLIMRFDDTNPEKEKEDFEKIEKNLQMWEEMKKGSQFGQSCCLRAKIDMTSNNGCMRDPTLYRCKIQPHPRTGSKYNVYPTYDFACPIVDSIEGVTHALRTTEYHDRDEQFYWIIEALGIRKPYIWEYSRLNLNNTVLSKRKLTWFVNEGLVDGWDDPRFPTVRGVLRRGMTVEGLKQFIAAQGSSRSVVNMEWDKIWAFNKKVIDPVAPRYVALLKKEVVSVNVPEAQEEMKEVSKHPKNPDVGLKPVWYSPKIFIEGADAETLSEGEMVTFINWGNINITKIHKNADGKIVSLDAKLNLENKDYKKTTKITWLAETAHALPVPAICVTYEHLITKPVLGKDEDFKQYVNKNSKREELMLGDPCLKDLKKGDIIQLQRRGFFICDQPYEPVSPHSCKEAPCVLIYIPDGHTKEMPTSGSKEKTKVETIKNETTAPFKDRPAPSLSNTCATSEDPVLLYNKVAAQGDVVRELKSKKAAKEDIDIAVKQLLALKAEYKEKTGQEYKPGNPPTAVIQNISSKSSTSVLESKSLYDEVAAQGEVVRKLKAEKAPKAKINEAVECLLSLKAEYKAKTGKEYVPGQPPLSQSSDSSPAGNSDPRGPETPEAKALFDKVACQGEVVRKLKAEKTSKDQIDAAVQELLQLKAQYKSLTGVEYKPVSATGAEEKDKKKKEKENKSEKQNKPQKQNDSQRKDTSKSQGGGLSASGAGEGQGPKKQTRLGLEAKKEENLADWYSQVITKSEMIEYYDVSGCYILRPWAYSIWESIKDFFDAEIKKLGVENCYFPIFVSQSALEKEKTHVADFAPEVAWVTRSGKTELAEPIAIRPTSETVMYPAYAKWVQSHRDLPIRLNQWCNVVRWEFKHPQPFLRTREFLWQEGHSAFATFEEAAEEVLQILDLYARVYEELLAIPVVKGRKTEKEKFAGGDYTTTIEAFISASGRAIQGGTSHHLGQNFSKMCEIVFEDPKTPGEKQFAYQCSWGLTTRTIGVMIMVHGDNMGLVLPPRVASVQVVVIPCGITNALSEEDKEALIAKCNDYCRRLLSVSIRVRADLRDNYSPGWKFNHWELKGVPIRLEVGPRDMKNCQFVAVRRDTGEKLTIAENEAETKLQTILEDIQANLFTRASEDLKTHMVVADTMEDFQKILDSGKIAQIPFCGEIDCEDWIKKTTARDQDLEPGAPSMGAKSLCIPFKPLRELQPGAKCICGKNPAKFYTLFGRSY
Method: FIG. 23D is a graph showing that HF inhibits prolyl tRNA synthetase activity in RRL. ^14C Pro or ^35S Met were incubated with RRL and total bovine tRNA in the presence or absence of HF or MAZ1310, and incorporation of radioactivity into tRNA was measured by liquid scintillation counting. Error bars reflect standard deviation of triplicate determinations. Data are representative of two separate experiments.
The effects of HF on prolyl-tRNA charging was examined. RRL were supplemented with ^14C-Pro or ^35S-Met in the presence or absence of HF, and total tRNA was isolated (FIG. 23D).

[3] = tested on: amino acid starvation response pathway; assay: Amino acid starvation response (eIF2α phosphorylation, ATF4, AAR genes) in T cells; format: cell-based, mouse; conditions: for eIF2α phosphorylation and ATF4 expression: 1 μg/ml tunicamycin
Method: FIG. 4C is a graph depicting results of quantitative real-time PCR performed on cDNA generated from unstimulated naïve T cells or those activated for 4 hours in the presence of 10 nM MAZ1310 or 10 nM HF. Asns, Gpt2 or eIF4Ebp1 mRNA expression was normalized to Hprt levels and data are presented as mean values ±SD in duplicate samples.
FIG. 4D depicts western blot analysis of purified CD4^+ CD25^− T cells either unstimulated, or TCR-activated without exogenous cytokines in the presence of DMSO, 40 nM MAZ1310 or titrating concentrations of HF (1.25-40 nM). Whole cell lysates were prepared 4 hours-post TCR activation and immunoblotting was performed with the indicated antibodies. ATF4 protein is indicated by arrowhead. NS—non-specific band.
FIG. 4E depicts western blot analysis of purified CD4^+ CD25^− T cells activated through the TCR for the indicated times without exogenous cytokines in the presence of either 10 nM MAZ1310 or 10 nM HF as indicated. Whole cell lysates were prepared during the timecourse and immunoblotting was performed.
FIG. 4F depicts western blot analysis of CD4^+ CD25^− T cells either left unstimulated or were TCR-activated in the absence or presence of the indicated polarizing cytokine conditions and 10 nM MAZ1310 or 10 nM HF as indicated. Whole cell lysates were generated 4 hours after activation and immunoblotting was performed. Microarray data were generated from three independent experiments and all other data are representative of at least two similar experiments.
FIG. 5. […] FIG. 5A depicts western blot and Xbp1 splicing analysis of CD4^+ CD25^− T cells left unstimulated, or activated through the TCR for 4 hours in complete medium (complete—200 μM Cys/100 μM Met), medium lacking Cys/Met (−Cys/Met) or complete medium containing 1 μg/ml tunicamycin, 10 nM HF or 10 nM MAZ1310. Western blotting was performed on whole cell extracts with the indicated antibodies. Xbp-1 splicing assay was performed on cDNA synthesized from T cell cultures.
T cells were activated as described above, collected at the indicated times and pellets were flash-frozen in liquid nitrogen. Total RNA was obtained by RNeasy (Quiagen—Valencia, Calif.) column purification per manufacturers instructions. RORγt expression was determined after reverse transcription using the message sensor kit (Ambion—Austin, Tex.) per the manufacturer's instructions and taqman primers and probe as described elsewhere (Ivanov et al., Cell 126:1121, 2006). Sybrgreen quantitative real-time PCR was performed on T cell RNA samples following reverse transcription via SuperScript II first-strand cDNA synthesis kit (Invitrogen—Carlsbad, Calif.). All PCR data was collected on an iCycler thermal cycler (Biorad—Hercules, Calif.). Primer sequences used for detecting stress response genes are listed below.
Whole cell lysates were generated from T cells activated for the indicated times. For STAT3 and Smad2/3 western blots cells were harvested, washed in PBS and lysed in 50 mM Tris, pH 7.4, 0.1% SDS, 1% Triton-X 100, 140 mM NaCl, 1 mM EDTA, 1 mM EGTA supplemented with protease inhibitors tablets (Roche—Germany), 1 mM NaF and 1 mM Na3VO4. For eIF2α and ATF4 western blots, cells were harvested as above and lysed in 50 mM Tris, pH 7.4, 2% SDS, 20% glycerol and 2 mM EDTA supplemented with protease and phosphatase inhibitors as above. All lysates were cleared via centrifugation and 15-30 μg of protein was resolved by SDS-PAGE. Protein was transferred to nitrocellulose membranes, blocked and blotted using specific antibodies. Antibodies used for western blot analysis were anti-phospho-Smad2, anti-STAT3 (pY705), anti-STAT3, anti-eIF2α^ps51, anti-eIF2α (all from cell signaling technology—Danvers, Mass.). Anti-ATF4/CREB2 and anti-β-actin were purchased from Santa Cruz Biotechnology (Santa Cruz, Calif.). HRP-conjugated secondary antibodies were all purchased from Sigma, with the exception of HRP-conjugated anti-armenian hamster antibody (Jackson Immunoresearch—West Grove, Pa.). […]

[4] = tested on: Smad2 phosphorylation; assay: TGFβ-stimulated Smad2 phosphorylation in fibroblasts; format: cell-based, mouse
Method: FIG. 30. Proline addition to fibroblasts rescues HF-inhibition of TGFβ Signaling. MEFs were treated with HF for 12 hours in the presence or absence of 2 mM proline, treated with 2 ng/mL TGFβ for 1 hour, and assayed for total Smad2 or pSmad2 by Western blot. Total and pSmad2 levels were quantitated using Image J software (bottom panel). Data are representative of three separate experiments.
FIG. 31. HF Dose response for pGCN2-induction and pSmad2-inhibition. Fibroblasts were treated for 12 hours with the indicated dose of HF and analyzed for Smad2 or GCN2 phosphorylation by Western blot. Data are representative of three separate experiments.
FIG. 32. pSmad2 inhibition by HF develops slowly over time. Fibroblasts were treated for the indicated time with 20 nM HF, then treated for 1 hr with 2 ng/mL TGFβ and analyzed for phosphorylation of Smad2 or GCN2 by Western blot. Data are representative of three separate experiments. Bottom panel: Western data in top panel were quantitated using Image J software.

[5] = TCR activation 4 hours, 10 nM HF

Row | Molecule | concentration at which HF can attenuate TGFβ signaling [1] [nM] | incorporation of 14C-Pro into tRNA [2] | time to maximum eIF2α phosphorylation ([3]; 10 nM HF) [h] | time until which ATF4 protein continued to accumulate ([3]; 10 nM HF) [h] | ATF4 expression in differentiated and naïve T cells ([3]; 10 nM HF, 4 hours) | eIF2α phosphorylation in resting naïve T cells and ThN, Th1, Th2, iTreg, Th17 conditions ([3]; 10 nM HF, 4 hours) | AAR-associated genes (Asns, Gpt2, eIF4Ebp1) by qPCR ([3]; 10 nM HF, within 4 hours of T cell activation) | effect of added proline on HF-induced eIF2alpha phosphorylation ([3]; 10 nM halofuginone, 1 mM amino acid) | eif2alpha Ser51 phosphorylation in wild type and GCN2−/− T cells ([3]; 10 nM, TCR activation 4 hours) | concentration at which eIF2α phosphorylation plateaued ([3]; 4 hours post TCR activation) [nM] | concentration giving detectable eIF2α phosphorylation ([3]; 4 hours post TCR activation) [nM] | concentration with highest ATF4 expression levels ([3]; 4 hours post TCR activation) [nM] | concentrations at which ATF4 expression was reduced ([3]; 4 hours post TCR activation) [nM] | eIF2α phosphorylation and ATF4 expression [3, 5] | time course of Smad2 inhibition versus GCN2 phosphorylation ([4]; 20 nM HF) | reversal of Smad2 phosphorylation inhibition by proline ([4]; 2 mM proline) | TGF-beta-stimulated Smad2 phosphorylation ([4]; 12 hours HF, same dose range as GCN2 phosphorylation)
1 | O=C(CC1NCCCC1O)Cn1cnc2cc(Br)c(Cl)cc2c1=O (racemic) [HF, halofuginone] | > 50 | inhibited | ≤ 2 | 4 | induced ATF4 expression in all differentiated T cells, but not in naïve T cells | induced eIF2α phosphorylation | induced | blocked by added proline | leads to phosphorylation of Ser51 of eif2alpha only in wild type cells and not in GCN2^−/− cells | 5 to 10 | 2.5 | 5 to 10 | 20 to 40 | inducing eIF2α phosphorylation | much slower | reversed by the addition of proline | reduced TGF-beta-stimulated Smad2 phosphorylation
2 | tunicamycin | – | – | – | – | – | – | – | – | – | – | – | – | – | induced eIF2α phosphorylation and ATF4 expression | – | – | –
